Laboratory results as given in patent US20100184673A1, “USE OF PARATHYROID HORMONE ( 1-34 ) AS ANTI-HIV AGENT” (priority 2007, published 2010).

Test system: drug-resistant Mycobacterium tuberculosis
Settings: peptide 10 micrograms per ml, seven days

CC[C@H](C)[C@H](NC(=O)[C@H](CCC(=O)O)NC(=O)[C@H](CO)NC(=O)[C@@H](NC(=O)[C@@H](N)CO)C(C)C)C(=O)N[C@@H](CCC(N)=O)C(=O)N[C@@H](CC(C)C)C(=O)N[C@@H](CCSC)C(=O)N[C@@H](Cc1cnc[nH]1)C(=O)N[C@@H](CC(N)=O)C(=O)N[C@@H](CC(C)C)C(=O)NCC(=O)N[C@@H](CCCCN)C(=O)N[C@@H](Cc1cnc[nH]1)C(=O)N[C@@H](CC(C)C)C(=O)N[C@@H](CC(N)=O)C(=O)N[C@@H](CO)C(=O)N[C@@H](CCSC)C(=O)N[C@@H](CCC(=O)O)C(=O)N[C@@H](CCCN=C(N)N)C(=O)N[C@H](C(=O)N[C@@H](CCC(=O)O)C(=O)N[C@@H](Cc1c[nH]c2ccccc12)C(=O)N[C@@H](CC(C)C)C(=O)N[C@@H](CCCN=C(N)N)C(=O)N[C@@H](CCCCN)C(=O)N[C@@H](CCCCN)C(=O)N[C@@H](CC(C)C)C(=O)N[C@@H](CCC(N)=O)C(=O)N[C@@H](CC(=O)O)C(=O)N[C@H](C(=O)N[C@@H](Cc1cnc[nH]1)C(=O)N[C@@H](CC(N)=O)C(=O)N[C@@H](Cc1ccccc1)C(=O)O)C(C)C)C(C)C [pTH (1-34)]
% inhibition: 0.0%
